Measured values as given in the supplement of paper PMC11061612.

How the values were obtained:
[1] = test system: NCI-H1092 (Small Cell Lung Carcinoma); experiment: combination Emax (second highest fraction inhibited in the dose matrix, 72 h); higher = more inhibition; extreme values may be limits of the assay
In short: (§1)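 Cell lines in DMEM/F12 or RPMI with 10% FBS were plated in 1536-well plates, held 24 hours at 37°C, 5% CO2, then given two-drug dose matrices for 72 hours (DMSO typically 0.2%). Viability was read by CellTiter-Glo 2.0 luminescence and scaled as inhibition from 0 (vehicle wells) to 1 (blank wells). Combination Emax is the second-highest inhibition in the matrix; Bliss excess is observed combination effect minus expected EA + EB − EA·EB, EA and EB being single-agent effects.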

EW-1 (Ewing's Sarcoma) [2] = experiment: as above
In short: as §1

[3] = test system: NCI-H2122 (Lung Adenocarcinoma); experiment: as above
In short: as §1

[4] = test system: HCC1937 (Breast Carcinoma); experiment: as above
In short: as §1

[5] = test system: EJM (Plasma Cell Myeloma); experiment: as above
In short: as §1

[6] = test system: NCI-H1838 (Lung Adenocarcinoma); experiment: as above
In short: as §1

[7] = test system: LC-1-sq (Squamous Cell Lung Carcinoma); experiment: as above
In short: as §1

[8] = test system: KOPN-8 (B-Lymphoblastic Leukemia); experiment: as above
In short: as §1

[9] = test system: NCI-H650 (Lung Adenocarcinoma); experiment: as above
In short: as §1

Hey (Ovarian Carcinoma) [10] = experiment: as above
In short: as §1

[11] = test system: G-401 (Other Solid Carcinomas); experiment: as above
In short: as §1

[12] = test system: CADO-ES1 (Ewing's Sarcoma); experiment: as above
In short: as §1

[13] = test system: HCC1500 (Breast Carcinoma); experiment: as above
In short: as §1

[14] = test system: ALL-SIL (T-Lymphoblastic Leukemia); experiment: as above
In short: as §1

[15] = test system: OACM5-1 (Esophageal Adenocarcinoma); experiment: as above
In short: as §1

[16] = test system: HCC2998 (Colorectal Carcinoma); experiment: as above
In short: as §1

[17] = test system: NCI-H1092 (Small Cell Lung Carcinoma); experiment: Bliss excess, mean over the matrix (fraction); higher = more synergy
In short: as §1

EW-1 (Ewing's Sarcoma) [18] = experiment: as above
In short: as §1

[19] = test system: NCI-H2122 (Lung Adenocarcinoma); experiment: as above
In short: as §1

[20] = test system: HCC1937 (Breast Carcinoma); experiment: as above
In short: as §1

[21] = test system: EJM (Plasma Cell Myeloma); experiment: as above
In short: as §1

[22] = test system: NCI-H1838 (Lung Adenocarcinoma); experiment: as above
In short: as §1

[23] = test system: LC-1-sq (Squamous Cell Lung Carcinoma); experiment: as above
In short: as §1

[24] = test system: KOPN-8 (B-Lymphoblastic Leukemia); experiment: as above
In short: as §1

[25] = test system: NCI-H650 (Lung Adenocarcinoma); experiment: as above
In short: as §1

Hey (Ovarian Carcinoma) [26] = experiment: as above
In short: as §1

[27] = test system: G-401 (Other Solid Carcinomas); experiment: as above
In short: as §1

[28] = test system: CADO-ES1 (Ewing's Sarcoma); experiment: as above
In short: as §1

[29] = test system: HCC1500 (Breast Carcinoma); experiment: as above
In short: as §1

[30] = test system: ALL-SIL (T-Lymphoblastic Leukemia); experiment: as above
In short: as §1

[31] = test system: OACM5-1 (Esophageal Adenocarcinoma); experiment: as above
In short: as §1

[32] = test system: HCC2998 (Colorectal Carcinoma); experiment: as above
In short: as §1
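For Bliss excess, mean over the matrix in this document: after 72 h of two-drug dosing.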

SMILES | combination Emax [1] | combination Emax (EW-1 (Ewing's Sarcoma) [2]) | combination Emax [3] | combination Emax [4] | combination Emax [5] | combination Emax [6] | combination Emax [7] | combination Emax [8] | combination Emax [9] | combination Emax (Hey (Ovarian Carcinoma) [10]) | combination Emax [11] | combination Emax [12] | combination Emax [13] | combination Emax [14] | combination Emax [15] | combination Emax [16] | Bliss excess [17] | Bliss excess (EW-1 (Ewing's Sarcoma) [18]) | Bliss excess [19] | Bliss excess [20] | Bliss excess [21] | Bliss excess [22] | Bliss excess [23] | Bliss excess [24] | Bliss excess [25] | Bliss excess (Hey (Ovarian Carcinoma) [26]) | Bliss excess [27] | Bliss excess [28] | Bliss excess [29] | Bliss excess [30] | Bliss excess [31] | Bliss excess [32]
C[C@@H](c1ccc2nccn2c1)n1nnc2ncc(-c3cnn(C)c3)nc21 [Savolitinib] + CN(CC[C@H](CSC1=CC=CC=C1)NC2=C(C=C(C=C2)S(=O)(=O)NC(=O)C3=CC=C(C=C3)N4CCC(CC4)[C@H](C5=CC=CC=C5C6=CC=C(C=C6)Cl)O)S(=O)(=O)C(F)(F)F)CCO [AZD4320] (first compound max 1 µM, 7x7, partner max 1 µM) | 0.857 | 0.574 | 0.252 | 0.319 | 0.278 | 0.205 | 0.309 | 0.967 | 0.181 | 0.125 | 0.276 | 0.706 | 0.998 | 1 | 0.216 | 0.511 | -0.0878 | -0.0384 | -0.0092 | -0.0666 | 0.0389 | -0.01 | -0.059 | 0.111 | -0.0723 | -0.0466 | -0.0486 | 0.0075 | -0.0104 | -0.0135 | -0.0435 | -0.0901
COc1nnc2ccc(N3CCC(c4ccc(OCCN5CCN(C)C(=O)[C@H]5C)cc4)CC3)nn12 [AZD5153] + CN(CC[C@H](CSC1=CC=CC=C1)NC2=C(C=C(C=C2)S(=O)(=O)NC(=O)C3=CC=C(C=C3)N4CCC(CC4)[C@H](C5=CC=CC=C5C6=CC=C(C=C6)Cl)O)S(=O)(=O)C(F)(F)F)CCO [AZD4320] (first compound max 1 µM, 7x7, partner max 1 µM) | 0.924 | 0.718 | 0.759 | 0.396 | 0.824 | 0.194 | 0.715 | 1 | 0.512 | 0.562 | 0.806 | 0.618 | 0.983 | 1 | 0.698 | 0.967 | 0.0381 | 0.0591 | -0.0537 | 0.0178 | 0.106 | -0.0272 | 0.0178 | 0.0349 | 0.0209 | 0.0787 | -0.026 | -0.0641 | -0.0002 | 0.0324 | 0.0552 | -0.0002
CC(=O)c1c(C)c2cnc(Nc3ccc(N4CCNCC4)cn3)nc2n(C2CCCC2)c1=O [Palbociclib] + CN(CC[C@H](CSC1=CC=CC=C1)NC2=C(C=C(C=C2)S(=O)(=O)NC(=O)C3=CC=C(C=C3)N4CCC(CC4)[C@H](C5=CC=CC=C5C6=CC=C(C=C6)Cl)O)S(=O)(=O)C(F)(F)F)CCO [AZD4320] (first compound max 10 µM, 7x7, partner max 1 µM) | 0.915 | 0.884 | 0.684 | 0.504 | 0.56 | 0.348 | 0.224 | 1 | 0.172 | 0.357 | 0.974 | 0.76 | 0.985 | 1 | 0.61 | 0.934 | -0.0197 | -0.0009 | -0.0482 | -0.0676 | -0.0016 | -0.0748 | -0.0469 | 0.0277 | -0.088 | -0.105 | 0.0091 | -0.149 | -0.0551 | -0.0064 | 0.0021 | -0.0452
